Measurements: patent US20140329844A1, “METHOD OF RESTORING THE INCRETIN EFFECT” (NEURENDO PHARMA, LLC, priority 2006, published 2014)
Values joined by “and” are separate entries in the source; they are usually repeats but may differ in a detail not shown here. Identical values can stand only once.

Test: Meal tolerance test (MTT) in metabolically impaired rhesus monkeys treated with GNTI
Type: in vivo, rhesus monkey
Conditions: for BG / GIP / GLP-1 / Glucagon / Insulin / Glucagon Change T0-T60/120: individual animals
Procedure: To test for the effect of physiological first phase insulin secretion, a meal tolerance test (MTT) was developed. The meal tolerance test involved oral administration of meal based nutrients within suitable ratios of carbohydrates, proteins and fats. The ratios used for the given example were 70% carbohydrates, 8% protein and 22% fats. […] Following MTV administration, the same readings were taken at time points of 3-9 minutes to test for first-phase insulin secretion and the subsequent reduction in blood glucose. It was determined that a first-phase insulin secretion dependent slight increase in insulin concentration appeared, typically, at 5 minutes post MTT administration, followed by a corresponding blood glucose decrease at 7 minutes. A slight decrease in glucagon levels was also coupled with first-phase insulin secretion at 5 minutes. The MTT serves as a corollary to the intravenous glucose tolerance test (MITT) and better measures first-phase insulin secretion because oral administration of nutrients has a more direct effect on the incretin effect.
Table 7 illustrates administration of the MTT to two rhesus monkeys categorized as metabolically “normal’ based on “normal” fasting blood glucose values. The monkeys were given a diet of 55-60% carbohydrates, 15-25% protein, and 15-30% fat. Readings of blood glucose, insulin, and glucagon were taken at time points 0, 5, 7, 60 and 120 minutes. Additionally, at the same time points, the incretin hormones, GIP and GLP-1 were measured to more directly measure the incretin effect. […] Comparison of blood glucose levels at time points 0 and 120 minutes illustrates that normal metabolic functioning has returned the subject's blood glucose levels to normal within 120 minutes of MTT administration.
Table 8 illustrates the effect of GNTI on physiologic control of glucagon Baseline readings were taken on Day 1 of blood glucose, insulin, glucagon, GIP, and GLP-1 in metabolically impaired rhesus monkeys as determined through administration of the MTT. Cumulative in-situ doses of 45 ng/kg and 95 ng/kg were active on day 5 and day 7, respectively, during administration of the MTT. Readings of blood glucose, insulin, glucagon, GIP, and GLP-1 were taken at time points 0, 60 minutes and 120 minutes.

[1] = Day 5, GNTI 45 ng/kg cumulative, MTT TP 0 min
[2] = Day 5, GNTI 45 ng/kg cumulative, MTT TP 60 min
[3] = Day 5, GNTI 45 ng/kg cumulative, MTT TP 120 min
[4] = Day 7, GNTI 95 ng/kg cumulative, MTT TP 0 min
[5] = Day 7, GNTI 95 ng/kg cumulative, MTT TP 60 min
[6] = Day 7, GNTI 95 ng/kg cumulative, MTT TP 120 min

NC(N)=Nc1ccc2[nH]c3c(c2c1)C[C@@]1(O)[C@H]2Cc4ccc(O)c5c4[C@@]1(CCN2CC1CC1)[C@H]3O5 [GNTI, guanidinylated naltrindole]
Effect on glucagon after MTT (both dosages (45 and 95 ng/kg), time points 60 and 120, all subjects tested): marked decrease in glucagon | BG [1]: 83 mg/dL and 69 mg/dL and 51 mg/dL | GIP [1]: 50 pg/mL and 8 pg/mL | GLP-1 [1]: 34 pmol/L and 19 pmol/L and 11 pmol/L | Glucagon [1]: 411 pg/mL (2×) and 302 pg/mL | Insulin [1]: 57 microU/mL and 23 microU/mL and 14 microU/mL | BG [2]: 98 mg/dL and 70 mg/dL and 64 mg/dL | GIP [2]: 640 pg/mL and 320 pg/mL and 650 pg/mL | GLP-1 [2]: 83 pmol/L and 49 pmol/L and 31 pmol/L | Glucagon [2]: 366 pg/mL and 172 pg/mL and 267 pg/mL | Insulin [2]: 396 microU/mL and 145 microU/mL and 122 microU/mL | BG [3]: 61 mg/dL and 78 mg/dL and 76 mg/dL | GIP [3]: 760 pg/mL and 775 pg/mL | GLP-1 [3]: 31 pmol/L and 82 pmol/L and 79 pmol/L | Glucagon [3]: 261 pg/mL and 249 pg/mL and 122 pg/mL | Insulin [3]: 200 microU/mL and 249 microU/mL and 137 microU/mL | Glucagon Change T0-T60/120 (Day 5, GNTI 45 ng/kg cumulative, T0 to T60 min): −11% and −43% and −35% | Glucagon Change T0-T60/120 (Day 5, GNTI 45 ng/kg cumulative, T0 to T120 min): −36% and −39% and −60% | BG [4]: 56 mg/dL and 82 mg/dL and 73 mg/dL | GIP [4]: 30 pg/mL and 25 pg/mL and 20 pg/mL | GLP-1 [4]: 28 pmol/L and 60 pmol/L and 67 pmol/L | Glucagon [4]: 472 pg/mL and 487 pg/mL and 293 pg/mL | Insulin [4]: 14 microU/mL and 71 microU/mL and 30 microU/mL | BG [5]: 70 mg/dL and 106 mg/dL and 69 mg/dL | GIP [5]: 675 pg/mL (2×) and 75 pg/mL | GLP-1 [5]: 35 pmol/L and 60 pmol/L | Glucagon [5]: 240 pg/mL and 351 pg/mL and 107 pg/mL | Insulin [5]: 100 microU/mL and 401 microU/mL and 54 microU/mL | BG [6]: 63 mg/dL and 95 mg/dL and 86 mg/dL | GIP [6]: 675 pg/mL and 775 pg/mL and 240 pg/mL | GLP-1 [6]: 223 pmol/L and 77 pmol/L | Glucagon [6]: 271 pg/mL and 267 pg/mL and 108 pg/mL | Insulin [6]: 54 microU/mL and 307 microU/mL and 71 microU/mL | Glucagon Change T0-T60/120 (Day 7, GNTI 95 ng/kg cumulative, T0 to T60 min): −49% and −28% and −63% | Glucagon Change T0-T60/120 (Day 7, GNTI 95 ng/kg cumulative, T0 to T120 min): −43% and −45% and −63%
